Values quoted from earlier work in publication PMC3297008, “Novel Marine Phenazines as Potential Cancer Chemopreventive and Anti-Inflammatory Agents” (Marine Drugs, 2012).
Read-outs that look alike come from different tables or passages of the source.

Legend:
P388 cells = tested on: P388 cells; set-up: method as in PMID 2753825; details: cited from earlier work
5-α-reductase [1] = tested on: 5-α-reductase; set-up: method as in PMID 2503481; details: derived from human prostate; cited from earlier work
5-α-reductase [2] = tested on: 5-α-reductase; set-up: method as in PMID 2503481; details: derived from dog prostate; cited from earlier work

SMILES: CC1=C(Cn2c3cccc(=O)c-3nc3ccccc32)CCC(C)(C)C1 [Lavanducyanin 3, lavanducyanin]
- growth inhibition of P388 cells in culture (P388 cells): strongly inhibits the growth
- inhibition of 5-α-reductase (5-α-reductase [1]): competitively inhibits
- inhibition of 5-α-reductase (5-α-reductase [2]): competitively inhibits
